According to patent US20140088032A1, “TREATMENT OF MASTITIS” (priority 2011, published 2014):
≈ marks a conversion by molar mass, not a printed value. Where “and” joins values, the source holds several entries; their conditions need not be identical. Equal entries are not always repeated. Entries after “also recorded” stand apart in the source; their conditions may differ. Structures can show the parent of a compound that is named as a salt. Where two headings read alike, the source gives them in different places.

Key:
[1] = system: S. aureus strain Newbould 305; experiment: MIC against the S. aureus challenge strain; type: cell-based, Staphylococcus aureus; conditions: S. aureus Newbould 305 strain used for the challenge
[2] = system: Staphylococcus aureus strain Newbould 305 (ATCC 29740); experiment: Example 1: experimental S. aureus mastitis in lactating cows, intramammary treatment; type: in vivo, Prim'Holstein lactating cows
Method: A Staphylococcus aureus strain Newbould 305 (ATCC 29740) stock suspension (about 10^11 CFU/ml) was kept frozen at −80° C. in peptone physiological water with 10% of glycerol. On day 0, the stock solution was thawed and diluted in peptone physiological water to a concentration of ca 1000 cfu/ml.
On Day 0 8 Prim'Holstein lactating cows, animals of between 2-5 years old and at least 2 months in lactation, were intramammarily inoculated into two homolateral quarters with 1 ml of S. aureus suspension per quarter (ca. 1000 cfu/quarter) into the teat cistern with sterile 2-ml syringes. Teat ends were disinfected with towels soaked in a disinfectant solution before infusion.
On day 6 after the challenge 4 cows (8 quarters) were treated with 75 mg cefquinome—one injector after each of 3 consecutive milkings—Group A. The 4 other cows infected were treated with 75 mg cefquinome as well, but 10 μg of re-LPS were infused just before each cefquinome infusion—Group B.
The standard assay for measuring mastitis in the dairy industry is to count the number of cells (originating from the cow) in the milk. This estimate is termed the somatic cell count (SCC). Specifically, the SCC reflects the levels of cells, including immune cells, such as leukocytes that are released from the lining and tissues of the udder of the infected animal, into the udder cavity. The number of somatic cells in a given volume of milk (typically 1 ml) provides a semi-quantitative estimate of the degree of mastitis, because unaffected animals typically have low SCC levels.
Milk samples were investigated for S. aureus presence and SCC levels at several time points during the study (days 2, 6, 9, 13, 16, 20, 23 post challenge for S. aureus bacteriology).
Clinical cure was assessed 16 days after treatment end (i.e. 23 days after the challenge), and was defined as having at least the two last consecutive milk samples with SCC <250000 cells/ml.

[3] = system: TLR4; conditions: relative to native LPS; cited from earlier work
[4] = relative to native LPS; cited from earlier work
[5] = system: Staphylococcus aureus strain Newbould 305 (ATCC 29740); experiment: Example 2: experimental S. aureus mastitis in lactating cows, intramammary treatment; type: in vivo, Prim'Holstein lactating cows; conditions: after Re-LPS infusion with neomycin/penicillin
Method: A Staphylococcus aureus strain Newbould 305 (ATCC 29740) stock suspension (about 10^9 CFU/ml) was kept frozen at −80° C. in peptone physiological water with 10% of glycerol. On day 0, the stock solution was thawed and diluted in peptone physiological water to a concentration of ca 200 cfu/ml.
On Day 0, 12 Prim'Holstein lactating cows, animals of between 2-8 years old and at least 1 month in lactation, were inoculated by intramammary route into two homo-lateral quarters, with 5 ml of S. aureus suspension per quarter (ca. 1000 cfu/quarter), using 5-ml syringes. Teat ends were disinfected with towels soaked in a disinfectant solution before infusion. […]
The standard assay for measuring mastitis in the dairy industry is to count the number of cells (originating from the cow) in the milk. […] The number of somatic cells in a given volume of milk (typically 1 ml) provides a semi-quantitative estimate of the degree of mastitis, because unaffected animals typically have low SCC levels. […]
Bacteriological cure was assessed 16 days after treatment end (i.e. 24 days after the challenge) and was defined as having at least the two last consecutive milk samples found negative for S. aureus (<5 cfu/ml).
Clinical cure was assessed 16 days after treatment end (i.e. 24 days after the challenge), and was defined as having at least the two last consecutive milk samples with SCC <250000 cells/ml.

Molecule: CO/N=C(\C(=O)N[C@@H]1C(=O)N2C(C(=O)[O-])=C(C[n+]3cccc4c3CCCC4)CS[C@H]12)c1csc(N)n1 [cefquinome, I1-[[(6R,7R)-7-[[(2Z)-(2-amino-4-thiazolyl)-(methoxyimino)acetyl]amino]-2-carboxy-8-oxo-5-thia-1-azabicyclo[4.2.0-oct-2-en-3-yl]methyl]-5,6,7,8-tetrahydroquinoliniuminner salt]
- MIC [1]: 0.25 µg/mL
- Quarters cure rate, bacteriological + clinical ([2]; day 23): 37.5% (3/8)
- Quarters cure rate, clinical ([2]; day 23, two last samples SCC <250000 cells/ml): 37.5% (3/8)
- Cure ([2]; individual quarter, assessed at day 23 (16 days after treatment end)): no (4×) and yes (4×)
- Quarter milk SCC at day 9 ([2]; individual quarter, day 9 relative to infection (day 0), treatment at day 6): 628 ×10^3 cell/ml and 310 ×10^3 cell/ml and 521 ×10^3 cell/ml and 533 ×10^3 cell/ml and 763 ×10^3 cell/ml and 334 ×10^3 cell/ml and 795 ×10^3 cell/ml and 249 ×10^3 cell/ml
- Quarter milk SCC at day 13 ([2]; individual quarter, day 13 relative to infection, treatment at day 6): 384 ×10^3 cell/ml and 828 ×10^3 cell/ml and 1533 ×10^3 cell/ml and 414 ×10^3 cell/ml and 250 ×10^3 cell/ml and 177 ×10^3 cell/ml and 112 ×10^3 cell/ml and 134 ×10^3 cell/ml
- Quarter milk SCC at day 16 ([2]; individual quarter, day 16 relative to infection, treatment at day 6): 2032 ×10^3 cell/ml and 921 ×10^3 cell/ml and 254 ×10^3 cell/ml and 317 ×10^3 cell/ml and 74 ×10^3 cell/ml and 125 ×10^3 cell/ml and 785 ×10^3 cell/ml and 95 ×10^3 cell/ml
- Quarter milk SCC at day 20 ([2]; individual quarter, day 20 relative to infection, treatment at day 6): 2008 ×10^3 cell/ml and 717 ×10^3 cell/ml and 281 ×10^3 cell/ml and 589 ×10^3 cell/ml and 137 ×10^3 cell/ml and 177 ×10^3 cell/ml and 1686 ×10^3 cell/ml and 77 ×10^3 cell/ml
- Quarter milk SCC at day 23 ([2]; individual quarter, day 23 relative to infection, treatment at day 6): 1382 ×10^3 cell/ml and 739 ×10^3 cell/ml and 536 ×10^3 cell/ml and 186 ×10^3 cell/ml and 98 ×10^3 cell/ml and 109 ×10^3 cell/ml and 2482 ×10^3 cell/ml and 47 ×10^3 cell/ml

Molecule: CC1(C)S[C@@H]2[C@H](NC(=O)Cc3ccccc3)C(=O)N2[C@H]1C(=O)O [benzyl penicillin]
- MIC ([1]; Staphylococcus aureus, read-out: MIC): 0.064 µg/mL (≈ 0.191 µM)

Molecule: CCCCCCCCCCCCCC(=O)O[C@H](CCCCCCCCCCC)CC(=O)OC1C(NC(=O)C[C@@H](CCCCCCCCCCC)OC(=O)CCCCCCCCCCC)[C@H](OCC2O[C@H](OP(=O)(O)O)C(NC(=O)C[C@H](O)CCCCCCCCCCC)C(OC(=O)C[C@H](O)CCCCCCCCCCC)[C@@H]2O)OC(CO[C@]2(C(=O)O)CC(O[C@]3(C(=O)O)CC(O)[C@@H](O)C([C@H](O)CO)O3)[C@@H](O)C([C@H](O)CO)O2)[C@H]1OP(=O)(O)O.N.N.N.N (stereo partly drawn) [Re-LPS, Kdo2-lipid A]
- Ability to activate TLR4 [3]: comparable to that of native LPS
- Endotoxin activity [4]: equal to that of native LPS; also recorded: comparable to that of native LPS
- SCC levels induced by treatment [5]: above 1.10^6 cells per ml
- SCC levels induced by treatment ([2]; after Re-LPS infusion with cefquinome, Example 1): above 1.10^6 cells per ml

Molecule: neomycin
- MIC [1]: 2 µg/mL
